The source of these data is patent US12018093B2, “Hemiasterlin derivatives and antibody-drug conjugates including same” (priority 2017, dated 2024).

“And” between values parts separate entries of the source, which are not always exact repeats. Equal values may be shown once. “Also recorded” adds a separate entry of the source. Read-outs that look alike come from different tables or passages of the source. A value given as a limit tells only on which side of the number the result lay.

The IC50 is the concentration needed to halve the response being measured. One may read the Papp as a coefficient for how fast a substance crosses the barrier. Usually half-life stands for the time in which the quantity being followed falls by half.

One data set relates to SU-DHL-1 cells. Nature of the data set: Cellular toxicity test (1), CellTiter-Glo, SU-DHL-1. In kind it is cell-based. The settings on record: Homo sapiens, 96 h, cultured 4 days, cell viability. The protocol:
(§1) SU-DHL-1 cells (American Type Culture Collection, hereinafter, ATCC) and Karpas-299 cells (European Collection of Authenticated Cell Cultures, hereinafter, ECACC), which are human lymphoma cell lines, were cultured in RPMI 1640 (GIBCO) containing 10% fetal bovine serum (MP Biomedicals) (hereinafter, referred to as the “culture medium” in this test). SU-DHL-1 cells and Karpas-299 cells were prepared to be 2×10^6 cells/mL in the culture medium, and were added to a 96 well microplate for cell culturing in an amount of 50 μL for each well. Compounds of Examples or hemiasterlin 4 times diluted with the culture medium in 8 stages were added to the microplate in an amount of 50 μL for each well. To wells to which the test substance was not added, the culture medium was added in an amount of 50 μL for each well. These were cultured at 37 degree under 5% CO2 for 4 days. After culturing, the microplate was taken out from the incubator, and was left at rest at room temperature for 10 minutes. To each well, 50 μL of CellTiter-Glo Luminescent Cell Viability Assay (Promega) was added, and the resultant mixture was stirred. This mixture was incubated at a dark place for 20 minutes. Using a microplate luminometer, luminescence at each well was measured, thereby calculating the cell viability for each concentration of the test substance. From the cell viability, the IC50 value of the test substance was determined.
(§2) The IC50 value was calculated by the following formula: IC50(nM)=antilog(LOG10(a/b)×(e−d)/(c−d)+LOG10b) • a: concentration a of test substance • b: concentration b of test substance • c: cell viability upon adding test substance with concentration a • d: cell viability upon adding test substance with concentration b • e: intermediate value between maximum and minimum among cell viabilities upon • adding test substances with different concentrations (a and b are concentrations crossing the cell viability e, and a>b is indicated).
(§3) The cell viability at each concentration was calculated by the following formula: Cell Viability (%)=a′/b′×100 • a′: mean value of luminescence amount of wells to which test substance was added (n=6) • b′: mean value of luminescence amount of wells to which test substance was not added (n=6) • (n represents the number of evaluations performed per test substance concentration).
On the technique in general: In ATP-based viability assays light output follows the ATP content of the culture.

The next data set deals with Karpas-299 cells. Nature of the data set: Cellular toxicity test (1), CellTiter-Glo, Karpas-299. In kind it is cell-based. Conditions: Homo sapiens, 96 h, cultured 4 days, cell viability. The protocol: as §1, §2, §3
Another data set relates to SK-BR-3 cells. Nature of the data set: Cellular toxicity test (2), CellTiter-Glo, SK-BR-3. In kind it is cell-based. Conditions: Homo sapiens, 72 h, cultured 3 days, cell viability. As to the method: as §2, §3
SK-BR-3 cells (ATCC), which are a human breast cancer cell line, were cultured in McCoy's 5A (GIBCO) containing 10% fetal bovine serum (MP Biomedicals) (hereinafter, referred to as the “culture medium” in this test). SK-BR-3 cells were prepared to be 2×10^6 cells/mL in the culture medium, added to a 96 well microplate for cell culturing in an amount of 50 μL for each well, and cultured at 37 degree under 5% CO2 overnight, and then, compounds of Examples or hemiasterlin 4 times diluted with the culture medium in 8 stages were added to the microplate in an amount of 50 μL for each well. To wells to which the test substance was not added, the culture medium was added in an amount of 50 μL for each well. These were cultured at 37 degree under 5% CO2 for 3 days. After culturing, the microplate was taken out from the incubator, and was left at rest at room temperature for 10 minutes. 50 μL of CellTiter-Glo Luminescent Cell Viability Assay (Promega) was added, and the resultant mixture was stirred. This mixture was incubated at a dark place for 20 minutes. Using a microplate luminometer, luminescence at each well was measured, thereby calculating the cell viability for each concentration of the test substance. The IC50 value was calculated in accordance with the method described in Test Example 3.

A short description of another data set: in vitro. The settings on record: PAMPA, pH 7.4. As to the method: By the parallel artificial membrane permeability assay (PAMPA), the membrane permeability of compounds of Examples was examined as follows: To the donor plate, System solution (pION inc.) and GIT Lipid-0 (pION inc.) were added in an amount of 200 μL and 4 μL for each well, respectively. To the acceptor plate, Acceptor Sink Buffer (pION inc.) was added in an amount of 200 μL. Both plates were superposed and incubated at 37° C. for 4 hours, and then, UVs in the solutions on the side of acceptor and on the side of donor were measured with an UV plate reader (190 to 500 nm). Compounds with poor UV absorption were measured by LC-MS. The permeability coefficient Pe (10^−6 cm/sec) of the drug was calculated by the following formula.

A short description of data set [1]: Pharmacokinetic evaluation test using mice. In kind it is in vivo. Conditions: for half-life: single intravenous administration. As to the method:
A pharmacokinetic evaluation test was performed by single intravenous administration of Example 4 at a dose of 1.0 mg/kg to mice. A calibration curve was made from measurements of Example 4 with known concentration, and by interpolating measurements of each specimen to this, the amount of the compound contained in unit volume of each plasma was calculated using LC-MS. Pharmacokinetics of compound 14 and hemiasterlin were similarly evaluated.
(n.d. in the tables means less than the detection limit value (0.5 ng/mL).)

Data set [2] addresses T1, porcine tubulin (Sus scrofa, UniProt P02550+P02554). Nature of the data set: Activity for inhibiting microtubule polymerization using porcine tubulins (1). It is filed as biochemical. The arrangement: purchased Cytoskeleton Inc. BK006P. The settings on record: compound 0.91 μM; absorbance at 340 nm, 37° C.; FIG. 1 and FIG. 2.
The target of data set [3] is T1, porcine tubulin. Description: Activity for inhibiting microtubule polymerization using porcine tubulins (2), microtubule polymerization rate. Conditions: 60 minutes after assay initiation; relative to wells without compound; lower = stronger inhibition.
Setting [4] is: mouse, plasma, iv, 1 mg/kg, single intravenous 1.0 mg/kg, 0.5 hr, read-out: Blood concentration, mean value.
Where [5] appears, read: mouse, plasma, iv, 1 mg/kg, single intravenous 1.0 mg/kg, 2 hr, read-out: Blood concentration, individual mice 1-3.
The mark [6] stands for this setting: mouse, plasma, iv, 1 mg/kg, single intravenous 1.0 mg/kg, 2 hr, read-out: Blood concentration, mean value.
Where [7] appears, read: single intravenous 1.0 mg/kg, 0.5 hr, 1 mg/kg.
Setting [8] is: single intravenous 1.0 mg/kg, 2 hr, 1 mg/kg.
Setting [9] is: single intravenous 1.0 mg/kg, 6 hr.
The mark [10] stands for this setting: single intravenous 1.0 mg/kg, 24 hr.

T1 sequence (P02554 whole entry): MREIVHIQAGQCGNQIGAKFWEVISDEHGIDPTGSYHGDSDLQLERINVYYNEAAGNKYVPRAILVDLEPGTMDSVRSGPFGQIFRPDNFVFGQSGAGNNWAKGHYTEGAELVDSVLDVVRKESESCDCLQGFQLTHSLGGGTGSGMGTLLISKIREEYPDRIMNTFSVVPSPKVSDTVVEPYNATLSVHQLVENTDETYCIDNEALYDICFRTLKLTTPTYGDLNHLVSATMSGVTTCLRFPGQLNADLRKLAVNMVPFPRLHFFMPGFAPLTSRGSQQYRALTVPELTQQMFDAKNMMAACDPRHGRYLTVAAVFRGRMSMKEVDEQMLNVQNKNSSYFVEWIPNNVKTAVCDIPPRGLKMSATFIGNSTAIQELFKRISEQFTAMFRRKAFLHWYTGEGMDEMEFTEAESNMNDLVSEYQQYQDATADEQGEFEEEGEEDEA
T1 sequence (P02550 whole entry): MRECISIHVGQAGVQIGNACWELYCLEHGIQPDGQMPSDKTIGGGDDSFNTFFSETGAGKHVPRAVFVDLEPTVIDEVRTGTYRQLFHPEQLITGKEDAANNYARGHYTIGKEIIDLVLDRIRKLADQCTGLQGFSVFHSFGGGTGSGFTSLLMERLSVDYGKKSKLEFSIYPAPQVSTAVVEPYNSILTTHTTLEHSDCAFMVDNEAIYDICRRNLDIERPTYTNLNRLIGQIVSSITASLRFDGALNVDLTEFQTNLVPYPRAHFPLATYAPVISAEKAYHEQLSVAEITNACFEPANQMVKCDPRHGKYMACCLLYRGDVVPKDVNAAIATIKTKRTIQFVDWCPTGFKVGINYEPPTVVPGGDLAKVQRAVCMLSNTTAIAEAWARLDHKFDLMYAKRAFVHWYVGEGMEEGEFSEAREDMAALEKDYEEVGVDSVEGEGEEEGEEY

With `CN[C@H](C(=O)N[C@H](C(=O)N(C)[C@H](/C=C(\C)C(=O)N[C@H](CCC(=O)O)C(=O)O)C(C)C)C(C)(C)C)C(C)(C)c1cn(C)c2ccccc12` [Example 4], the IC50 in the data set with SU-DHL-1 cells was determined as 250 nM; with Karpas-299 cells it was 291 nM; in the data set on SK-BR-3 cells, 193 nM. This compound also registered a Papp in the data set “in vitro” of less than 0.1 ×10⁻⁶ cm/s. For the same compound, the half-life in data set [1] (mouse, plasma, 1 mg/kg) is less than 0.5 h. In data set [1] (setting [4]), the concentration at 0.5 hr is 13.7 ng/mL. Besides, the concentration at 2 hr stood at 0.7 ng/mL in data set [1] (setting [5]) and 0.8 ng/mL in data set [1] (setting [6]). The “Blood concentration, individual mice 1-3” value in data set [1] (setting [7]) was 10.3 ng/mL and 10.2 ng/mL and 20.6 ng/mL; in data set [1] (setting [8]), 1.0 ng/mL and 0.7 ng/mL; in data set [1] (setting [9]), “n.d. (less than the detection limit value (0.5 ng/mL))”; in data set [1] (setting [10]), “n.d. (less than the detection limit value (0.5 ng/mL))”. For the same compound, the “Blood concentration, mean value” in data set [1] (setting [9]) and in data set [1] (setting [10]) was “n.d. (less than the detection limit value (0.5 ng/mL))” each time. Also, the “Blood concentration of Example 4 detected as metabolite of Example 14” value in data set [1] (single intravenous administration of Example 14, 6 hr, animal 1) is listed as “n.d. (less than the detection limit value (0.5 ng/mL))”; in data set [1] (single intravenous administration of Example 14, 6 hr, animal 2) it was “n.d. (less than the detection limit value (0.5 ng/mL))”; in data set [1] (single intravenous administration of Example 14, 6 hr, animal 3) it was “n.d. (less than the detection limit value (0.5 ng/mL))”; in data set [1] (single intravenous administration of Example 14, 24 hr, animal 1) it was “n.d. (less than the detection limit value (0.5 ng/mL))”; in data set [1] (single intravenous administration of Example 14, 24 hr, animal 2), “n.d. (less than the detection limit value (0.5 ng/mL))”; in data set [1] (single intravenous administration of Example 14, 24 hr, animal 3) it was “n.d. (less than the detection limit value (0.5 ng/mL))”. Further, the “Blood concentration of Example 4 detected as metabolite of Example 14, mean” value in data set [1] (single intravenous administration of Example 14, 6 hr) was “n.d. (less than the detection limit value (0.5 ng/mL))”; in data set [1] (single intravenous administration of Example 14, 24 hr), “n.d. (less than the detection limit value (0.5 ng/mL))”. On porcine tubulin [2], the “activity for inhibiting microtubule polymerization” value is “exhibited activities for inhibiting microtubule polymerization; also recorded: exhibited a stronger polymerization inhibitory activity”.
In the case of `CN[C@H](C(=O)N[C@H](C(=O)N(C)[C@H](/C=C(\C)C(=O)N[C@@H](CC(=O)O)C(=O)O)C(C)C)C(C)(C)C)C(C)(C)c1cn(C)c2ccccc12` [Example 11], the IC50 was determined as 158 nM with SU-DHL-1 cells, 220 nM with Karpas-299 cells and 157 nM in the data set with SK-BR-3 cells. Moreover, the “Microtubule polymerization rate (%)” value at porcine tubulin [3] worked out at 5%.
Regarding `CN[C@H](C(=O)N[C@H](C(=O)N(C)[C@H](/C=C(\C)C(=O)N[C@@H](CS)C(=O)O)C(C)C)C(C)(C)C)C(C)(C)c1cn(C)c2ccccc12` [Example 23], the IC50 with SU-DHL-1 cells is greater than 50 nM; with SK-BR-3 cells, 143 nM. Further, the “activity for inhibiting microtubule polymerization” value on porcine tubulin [2] is “exhibited activities for inhibiting microtubule polymerization”.
Take `CCOC(=O)CC[C@@H](NC(=O)/C(C)=C/[C@H](C(C)C)N(C)C(=O)[C@@H](NC(=O)[C@@H](NC)C(C)(C)c1cn(C)c2ccccc12)C(C)(C)C)C(=O)OCC` [Example 9]: the “activity for inhibiting microtubule polymerization” value at porcine tubulin [2] is “exhibited activities for inhibiting microtubule polymerization”.
Take `CN[C@H](C(=O)N[C@H](C(=O)N(C)[C@H](/C=C(\C)C(=O)O)C(C)C)C(C)(C)C)C(C)(C)c1cn(C)c2ccccc12` [Hemiasterlin, hemiasterlin]: the IC50 in the data set with Karpas-299 cells worked out at 0.032 nM; in the data set on SK-BR-3 cells it was 0.088 nM. Also, in data set [1] (mouse, plasma, 1 mg/kg), the half-life was less than 13.1 h. Also, the concentration at 0.5 hr in data set [1] (setting [4]) worked out at 65 ng/mL. The figures for the concentration at 2 hr in data set [1] (setting [5]) and in data set [1] (setting [6]) were 25.1 ng/mL and 25.8 ng/mL, respectively. Further, the concentration at 6 hr in data set [1] (mouse, plasma, iv, 1 mg/kg, single intravenous 1.0 mg/kg, 6 hr, read-out: Blood concentration, individual mice 1-3) worked out at 18.9 ng/mL; in data set [1] (mouse, plasma, iv, 1 mg/kg, single intravenous 1.0 mg/kg, 6 hr, read-out: Blood concentration, mean value), 22.4 ng/mL. Also, the concentration at 24 hr in data set [1] (mouse, plasma, iv, 1 mg/kg, single intravenous 1.0 mg/kg, 24 hr, read-out: Blood concentration, mean value) is 8.3 ng/mL. The “Blood concentration, individual mice 1-3” value in data set [1] (setting [7]) is 54.5 ng/mL and 99.8 ng/mL and 40.6 ng/mL; in data set [1] (setting [8]), 22.2 ng/mL and 30.20 ng/mL; in data set [1] (single intravenous 1.0 mg/kg, 6 hr, 1 mg/kg), 18.2 ng/mL and 30.2 ng/mL; in data set [1] (single intravenous 1.0 mg/kg, 24 hr, 1 mg/kg) it was 2.4 ng/mL and 12.8 ng/mL and 9.5 ng/mL. In addition, the “Microtubule polymerization rate (%)” value on porcine tubulin [3] is given as 3%.
For `CN[C@H](C(=O)N[C@H](C(=O)N(C)[C@H](/C=C(\C)C(=O)N[C@@H](CS)C(=O)OC)C(C)C)C(C)(C)C)C(C)(C)c1cn(C)c2ccccc12` [Example 22], the IC50 with SU-DHL-1 cells was determined as 1.22 nM; in the data set on SK-BR-3 cells, 1.92 nM.
Regarding `CN[C@H](C(=O)N[C@H](C(=O)N(C)[C@H](/C=C(\C)C(=O)N[C@H](CCC(=O)O)C(=O)O)C(C)C)C(C)(C)C)C(C)(C)c1cccc(-c2ccccc2)c1` [Example 67], in the data set on Karpas-299 cells, the IC50 worked out at 149 nM. This compound showed a Papp in “in vitro” of less than 0.1 ×10⁻⁶ cm/s. The “Microtubule polymerization rate (%)” value at porcine tubulin [3] worked out at 42%.
